According to US20230321063A1, “COMPOSITIONS AND METHODS TO REDUCE NEUROINFLAMMATION” (Seattle Children's Hospital d/b/a Seattle Children's …, priority 2020, published 2023):
Entries after “also recorded” stand apart in the source; their conditions may differ.

Assays:
Ndufs4(KO) mice [1] = experiment: Minimum Alveolar Concentration (MAC) of isoflurane associated with anesthesia; format: in vivo, mouse; conditions: 300 mg/kg/day, P30 Ndufs4(KO) animals
Source text: In particular embodiments, effective amounts can be evidenced by reduced sensitivity to volatile anesthetics. Sensitivity to volatile anesthetics can be determined by measuring the minimum alveolar concentration (MAC). MAC provides a correlation between the dose of an anesthetic and immobility. (Lobo et al. (2020) StatPearls, World Wide Web at ncbi.nlm.nih.gov/books/NBK532974/). […] MAC can be expressed as volumes percent of alveolar (end-tidal) gas at one atmosphere pressure at sea level (i.e., 760 mm Hg). In particular embodiments, volatile anesthetics can include nitrous oxide, isoflurane, desflurane, halothane, and sevoflurane. Mice can be exposed to an anesthetic by using a vaporizer at a particular flow rate (e.g., 3-4 liters/min) through a humidifier in-line. […] In particular embodiments, sensitivity to volatile anesthetics can be reduced in a subject administered a composition including a therapeutically effective amount of an inhibitor of the disclosure, as compared to sensitivity to volatile anesthetics in the subject not administered the composition, as measured by a relevant test such as MAC.
To test whether leukocyte depletion might impact VA hypersensitivity, the Minimum Alveolar Concentration (MAC) of isoflurane associated with anesthesia in control and 300 mg/kg/day pexidartinib treated Ndufs4(KO) animals was assessed (see Experimental Methods in Example 1 for details). […]

Ndufs4(KO) mice [2] = experiment: Respiratory measurements by whole-body plethysmography; format: in vivo, mouse; conditions: 300 mg/kg/day
Experimental: Respiratory measurements. Breathing parameters were recorded from alert, unrestrained, adult (P60) mice using whole-body plethysmography. Paired 300 ml recording and reference chambers were continuously ventilated (150 ml/min) with either normal air (79% nitrogen and 21% oxygen) or a hypercapnic gas mixture (74% nitrogen, 21% oxygen, and 5% CO2). Pressure differences between the recording and reference chambers were measured (Buxco Respiratory Products) and digitized (Axon Instruments) to visualize respiratory pattern, and simultaneous video recordings were performed to differentiate resting breathing activity from exploratory sniffing and grooming behaviors. Untreated and treated (pexidartinib 300 mg/kg/day) control and Ndufs4(KO) mice were allowed to acclimate to the chambers for 30-40 min prior to acquisition of 35 min of respiratory activity in normal air. The respiratory response to hypercapnia was then tested by ventilating the chambers with hypercapnic gas for 15 min. Respiratory frequency, and breath-to-breath irregularity scores (irreg.score=ABS((N-(N−1))/N)) of frequency and amplitude (peak inspiratory airflow) were quantified during periods of resting breathing (pClamp10 software). During hypercapnic challenges, only data during the final 5 min of the 15 min period were analyzed. […]

Ndufs4(KO) mice [3] = experiment: Point-of-care blood glucose by age; format: in vivo, mouse
Source text: (§1) Point-of-care glucose and lactate testing. Blood glucose and lactate measurements were collected using point-of-care meters (Prodigy Autocode® glucose meter, product #51850-3466188, Prodigy® Diabetes Care, LLC, Charlotte, NC; lactate assay meter, product #40828, Nova Biomedical, Waltham, MA) and the tail-prick method, as previously described (Stokes et al. Elife 2021; 10:e65400).

[4] = tested on: control and Ndufs4(KO) mice; experiment: Glucose tolerance test (GTT) and glucose induced lactate test; format: in vivo, mouse; conditions: 2 g/kg glucose IP; pexidartinib 300 mg/kg/d in chow, IPI-549 100 mg/kg/d in chow, rapamycin (ABI-009) 8 mg/kg/d IP
Source text: as §1
Glucose tolerance test (GTT) and glucose induced lactate test. Prior to performing the GTT, mice were fasted for 4 hours, from 10 AM-2 PM. The fasting duration was limited to 4 hours given the sensitivity of untreated Ndufs4(KO) animals to hypoglycemia and related sequelae (dysregulation of body temperature, hypoglycemia induced seizure, etc.). For the ABI-009 cohort, mice received their daily ABI-009 treatment at the start of this fasting period. At the end of the 4 hour fast, baseline blood glucose and lactate values were collecting using point-of-care meters and the tail-prick method. Mice were then injected by IP with 2 g/kg dextrose (10 microliters/gram body weight of 200 mg/mL glucose in 1×PBS, 0.2 micron sterile filtered) using an insulin syringe (31-gauge, 6 mm length, 3/10 cc, BD Veo Ultra-Fine needle). Glucose and lactate levels were measured using a minimally invasive tail-prick method at designated timepoints post-injection.

Ndufs4(KO) mice [5] = experiment: Rotarod induced seizures; format: in vivo, mouse
Experimental: Rotarod and rotarod seizures. Rotarod assays were performed using a Med Associates Inc. (Fairfax, VT) ENV-571M single lane rotarod with a black mat installed in the floor of the lane to reduce visibility of the bottom. Assays were performed by placing animals onto an already rotating rod and timing latency to fall, with a steady rotation speed set to 6 rpm (controlled by attached laptop and Med Associates software). The maximum time of each trial was 10 min, with the trial ending at that time if mice were still on the rotarod. For each assay, three trials were performed, with a minimum of 5 min between each assay. The best of the three trials was reported for the rotarod data. As detailed in the text and figure legends, rotarod was performed each 10 days of age from P30; mice in a given age group were the reported age +/−1 day.
Mice were monitored throughout each assay for seizure activity, and rotarod performance trials were ended if a seizure was observed. […]

[6] = tested on: control and Ndufs4(KO) animals; experiment: Observation of coat color under treatment; format: in vivo, mouse; conditions: higher doses (of 100, 200, 300 mg/kg/day) in chow
Experimental: To directly test this model, Ndufs4(KO) and control animals were treated with 100, 200, or 300 mg/kg/day pexidartinib in normal mouse chow (dosing is approximated based on food consumption, see Experimental Methods in Example 1).

[7] = cited from earlier work

In the case of `FC(F)(F)c1ccc(CNc2ccc(Cc3c[nH]c4ncc(Cl)cc34)cn2)cn1` [pexidartinib, 5-[(5-chloro-1H-pyrrolo[2,3-b]pyridin-3-yl)methyl]-N-[[6-(trifluoromethyl)pyridin-3-yl]methyl]pyridin-2-amine], the “hypersensitivity to sedation by isoflurane (MAC)” value (Ndufs4(KO) mice [1]) is reported as “modest, but statistically significant, attenuation”, the “respiratory dysfunction in normal air” value (Ndufs4(KO) mice [2]; P60) is reported as “completely rescued” and the “respiratory response to increased CO2” value (Ndufs4(KO) mice [2]; P60, 5% CO2) is reported as “completely rescued”. For the same molecule, the “hypoglycemia (blood glucose)” value (Ndufs4(KO) mice [3]) was “prevented”, the “blood lactate spike in response to a glucose bolus” value [4] was “prevented this spike in blood lactate” and the time-to-seizure (Ndufs4(KO) mice [5]; Ndufs4(KO) mice at P30, rotarod assay) was “markedly reduced”. For the same molecule, the “incidence of rotarod induced seizures” value (Ndufs4(KO) mice [5]; Ndufs4(KO) mice at P30, untreated 30%) was “markedly reduced”, the coat/fur color [6] was “turns fur white; also recorded: change in mouse coat color” and the coat/fur color ([6]; listed as Pexidartinib) was “caused animal fur to whiten”. For the same molecule, the liver damage ([7]; patients) was “known to cause liver damage” and the “hair color in humans” value ([7]; reports in humans) was “hair whitening in humans”.
